Reference: patent publication US20150105252A1, “SUBSTITUTED PYRAZOLES AS HERBICIDES” (E I DU PONT DE NEMOURS AND COMPANY, priority 2013, published 2015)

Legend:
morningglory = assay: Test A preemergence; type: in vivo, Ipomoea spp.; details: preemergence; for Morningglory plant response rating (0 to 100 scale): 125 g ai/ha, visual injury approx. 10 days after treatment
How it was run: (§1)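 Visual injury ratings, 0 = no effect to 100 = complete control, taken about 10 days after treatment against untreated controls. Test chemicals, in a non-phytotoxic surfactant-containing solvent, were sprayed onto soil preemergence or onto one- to two-leaf plants (2–10 cm) postemergence, in loam–sand soil under greenhouse conditions.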

waterhemp = assay: Test C preemergence; type: in vivo, Amaranthus rudis; details: preemergence; for Plant response rating, Waterhemp: 125 g ai/ha, scale 0 to 100, 0 = no effect, 100 = complete control
How it was run: (§2)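 Pre- and postemergence greenhouse screen; vehicle was a non-phytotoxic solvent mix with surfactant. Preemergence: treatment applied right after sowing into loam and sand. Postemergence: treated at 1–4 leaves. Visual rating at 13–15 days, 100 = complete control.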

velvetleaf = assay: Test C preemergence; type: in vivo, Abutilon theophrasti; details: preemergence; for Plant response rating, Velvetleaf: 125 g ai/ha, scale 0 to 100, 0 = no effect, 100 = complete control
How it was run: as §2

crabgrass, large [1] = assay: Test C postemergence; type: in vivo, Digitaria sanguinalis; details: for Plant response rating (scale of 0 to 100 where 0 is no effect and 100 is complete control), Crabgrass, Large: Postemergence, 31 g ai/ha, visually evaluated after 13 to 15 days; for Crabgrass, Large plant response rating / Plant response rating, Crabgrass, Large: postemergence; for Crabgrass, Large plant response rating: 62 g ai/ha, scale 0 to 100
How it was run: as §2

crabgrass, large [2] = assay: Test A preemergence; type: in vivo, Digitaria sanguinalis; details: preemergence; for Crabgrass, Large plant response rating (0 to 100 scale): 125 g ai/ha, visual injury approx. 10 days after treatment; for Crabgrass, Large plant response rating: 500 g ai/ha, visual injury after approx. 10 days, 0 to 100 scale (0 no effect, 100 complete control)
How it was run: as §1

crabgrass, large [3] = assay: Test C preemergence; type: in vivo, Digitaria sanguinalis; details: preemergence; for Plant response rating, Crabgrass, Large: 125 g ai/ha, scale 0 to 100, 0 = no effect, 100 = complete control
How it was run: as §2

ryegrass, Italian = assay: Test C preemergence; type: in vivo, Lolium multiflorum; details: preemergence; for Plant response rating, Ryegrass, Italian: 125 g ai/ha, scale 0 to 100, 0 = no effect, 100 = complete control
How it was run: as §2

pigweed = assay: Test A postemergence; type: in vivo, Amaranthus retroflexus
How it was run: as §1

barnyardgrass [4] = assay: Test A postemergence; type: in vivo, Echinochloa crus-galli
How it was run: as §1

johnsongrass = assay: Test C preemergence; type: in vivo, Sorghum halepense; details: preemergence; for Plant response rating, Johnsongrass: 125 g ai/ha, scale 0 to 100, 0 = no effect, 100 = complete control
How it was run: as §2

foxtail, giant = assay: Test C preemergence; type: in vivo, Setaria faberii; details: preemergence; for Plant response rating, Foxtail, Giant: 125 g ai/ha, scale 0 to 100, 0 = no effect, 100 = complete control
How it was run: as §2

kochia = assay: Test C postemergence; type: in vivo, Kochia scoparia; details: for Plant response rating (scale of 0 to 100 where 0 is no effect and 100 is complete control), Kochia: Postemergence, 31 g ai/ha, visually evaluated after 13 to 15 days; for Kochia plant response rating / Plant response rating, Kochia: postemergence; for Kochia plant response rating: 62 g ai/ha, scale 0 to 100
How it was run: as §2

chickweed = assay: Test C postemergence; type: in vivo, Stellaria media; details: for Plant response rating (scale of 0 to 100 where 0 is no effect and 100 is complete control), Chickweed: Postemergence, 31 g ai/ha, visually evaluated after 13 to 15 days; for Chickweed plant response rating / Plant response rating, Chickweed: postemergence; for Chickweed plant response rating: 62 g ai/ha, scale 0 to 100
How it was run: as §2

barnyardgrass [5] = assay: Test C postemergence; type: in vivo, Echinochloa crus-galli; details: for Plant response rating (scale of 0 to 100 where 0 is no effect and 100 is complete control), Barnyardgrass: Postemergence, 31 g ai/ha, visually evaluated after 13 to 15 days; for Barnyardgrass plant response rating / Plant response rating, Barnyardgrass: postemergence; for Barnyardgrass plant response rating: 62 g ai/ha, scale 0 to 100
How it was run: as §2

[6] = 31 g ai/ha, visual rating, scale 0 to 100 (0 no effect, 100 complete control), 13 to 15 days
[7] = 62 g ai/ha, scale 0 to 100 (0 no effect, 100 complete control), 13 to 15 days
[8] = 250 g ai/ha, scale 0 to 100, 0 is no effect, 100 is complete control
[9] = 250 g ai/ha, scale 0 to 100 (0 no effect, 100 complete control)
[10] = 125 g ai/ha, scale 0 to 100, 0 no effect, 100 complete control
[11] = Postemergence, 125 g ai/ha, 0 to 100 scale, 0 no effect, 100 complete control
[12] = Postemergence, 500 g ai/ha, 0 to 100 scale (0 no effect, 100 complete control)
[13] = postemergence, 125 g ai/ha, about 10 days, visual rating on 0 to 100 scale (0 no effect, 100 complete control)

With `CCc1cc(C(=O)NCC(F)(F)F)nn1Cc1ccnc(SC(F)(F)F)c1` [Compound 214] the “Morningglory plant response rating (0 to 100 scale)” value (morningglory) was 80, the “Waterhemp plant response rating” value (waterhemp; [6]) was 100 and the “Waterhemp plant response rating” value (waterhemp; [7]) was 100. For the same compound, the “Plant response rating, Waterhemp” value (waterhemp; 13 to 15 days) was 100, the “Waterhemp plant response rating” value (waterhemp; [8]) was 100 and the “Velvetleaf plant response rating” value (velvetleaf; [6]) was 35. The “Velvetleaf plant response rating” value (velvetleaf; [7]) was 100, the “Plant response rating, Velvetleaf” value (velvetleaf; 13 to 15 days) was 100 and the “Velvetleaf plant response rating” value (velvetleaf; [8]) was 100. For the same compound, the “Plant response rating (scale of 0 to 100 where 0 is no effect and 100 is complete control), Crabgrass, Large” value (crabgrass, large [1]) was 5, the “Crabgrass, Large plant response rating” value (crabgrass, large [1]) was 5 and the “Plant response rating, Crabgrass, Large” value (crabgrass, large [1]; [9]) was 55. For the same compound, the “Plant response rating, Crabgrass, Large” value (crabgrass, large [1]; [10]) was 20, the “Crabgrass, Large plant response rating (0 to 100 scale)” value (crabgrass, large [2]) was 100 and the “Crabgrass, Large plant response rating” value (crabgrass, large [2]) was 100. For the same compound, the “Crabgrass, Large plant response rating” value (crabgrass, large [3]; [6]) was 100, the “Crabgrass, Large plant response rating” value (crabgrass, large [3]; [7]) was 100 and the “Plant response rating, Crabgrass, Large” value (crabgrass, large [3]; 13 to 15 days) was 100. For the same compound, the “Crabgrass, Large plant response rating” value (crabgrass, large [3]; [8]) was 100, the “Ryegrass, Italian plant response rating” value (ryegrass, Italian; [6]) was 5 and the “Ryegrass, Italian plant response rating” value (ryegrass, Italian; [7]) was 30. The “Plant response rating, Ryegrass, Italian” value (ryegrass, Italian; 13 to 15 days) was 70, the “Ryegrass, Italian plant response rating” value (ryegrass, Italian; [8]) was 80 and the “Pigweed plant response rating” value (pigweed; [11]) was 100. The “Pigweed plant response rating” value (pigweed; [12]) was 100, the “Barnyardgrass plant response rating” value (barnyardgrass [4]; [11]) was 100 and the “Barnyardgrass plant response rating” value (barnyardgrass [4]; [12]) was 100. For the same compound, the “Johnsongrass plant response rating” value (johnsongrass; [6]) was 0, the “Johnsongrass plant response rating” value (johnsongrass; [7]) was 40 and the “Plant response rating, Johnsongrass” value (johnsongrass; 13 to 15 days) was 75. The “Johnsongrass plant response rating” value (johnsongrass; [8]) was 90, the “Foxtail, Giant plant response rating” value (foxtail, giant; [6]) was 90 and the “Foxtail, Giant plant response rating” value (foxtail, giant; [7]) was 98. For the same compound, the “Plant response rating, Foxtail, Giant” value (foxtail, giant; 13 to 15 days) was 100, the “Foxtail, Giant plant response rating” value (foxtail, giant; [8]) was 100 and the “Plant response rating (scale of 0 to 100 where 0 is no effect and 100 is complete control), Kochia” value (kochia) was 85. For the same compound, the “Kochia plant response rating” value (kochia) was 90, the “Plant response rating, Kochia” value (kochia; [9]) was 90 and the “Plant response rating, Kochia” value (kochia; [10]) was 90. The “Plant response rating (scale of 0 to 100 where 0 is no effect and 100 is complete control), Chickweed” value (chickweed) was 50, the “Chickweed plant response rating” value (chickweed) was 55 and the “Plant response rating, Chickweed” value (chickweed; [9]) was 85. The “Plant response rating, Chickweed” value (chickweed; [10]) was 70, the “Plant response rating (scale of 0 to 100 where 0 is no effect and 100 is complete control), Barnyardgrass” value (barnyardgrass [5]) was 5 and the “Barnyardgrass plant response rating” value (barnyardgrass [5]) was 5. For the same compound, the “Plant response rating, Barnyardgrass” value (barnyardgrass [5]; [9]) was 65 and the “Plant response rating, Barnyardgrass” value (barnyardgrass [5]; [10]) was 30.

For `CCOc1cc(C(=O)NOC(C)C)nn1Cc1ccnc(C(F)(F)F)c1` [Compound 153], the “Morningglory plant response rating (0 to 100 scale)” value (morningglory) was 100, the “Morningglory plant response rating” value (morningglory; 500 g ai/ha, visual injury after approx. 10 days, 0 to 100 scale (0 no effect, 100 complete control)) was 100 and the “Waterhemp plant response rating” value (waterhemp; [6]) was 60. For the same compound, the “Waterhemp plant response rating” value (waterhemp; [7]) was 100, the “Plant response rating, Waterhemp” value (waterhemp; 13 to 15 days) was 100 and the “Waterhemp plant response rating” value (waterhemp; [8]) was 100. The “Velvetleaf plant response rating” value (velvetleaf; [6]) was 10, the “Velvetleaf plant response rating” value (velvetleaf; [7]) was 60 and the “Plant response rating, Velvetleaf” value (velvetleaf; 13 to 15 days) was 90. The “Velvetleaf plant response rating” value (velvetleaf; [8]) was 100, the “Plant response rating (scale of 0 to 100 where 0 is no effect and 100 is complete control), Crabgrass, Large” value (crabgrass, large [1]) was 5 and the “Crabgrass, Large plant response rating” value (crabgrass, large [1]) was 10. For the same compound, the “Plant response rating, Crabgrass, Large” value (crabgrass, large [1]; [9]) was 45, the “Plant response rating, Crabgrass, Large” value (crabgrass, large [1]; [10]) was 15 and the “Crabgrass, Large plant response rating (0 to 100 scale)” value (crabgrass, large [2]) was 100. For the same compound, the “Crabgrass, Large plant response rating” value (crabgrass, large [2]) was 100, the “Crabgrass, Large plant response rating” value (crabgrass, large [3]; [6]) was 85 and the “Crabgrass, Large plant response rating” value (crabgrass, large [3]; [7]) was 98. For the same compound, the “Plant response rating, Crabgrass, Large” value (crabgrass, large [3]; 13 to 15 days) was 100, the “Crabgrass, Large plant response rating” value (crabgrass, large [3]; [8]) was 100 and the “Ryegrass, Italian plant response rating” value (ryegrass, Italian; [6]) was 5. For the same compound, the “Ryegrass, Italian plant response rating” value (ryegrass, Italian; [7]) was 50, the “Plant response rating, Ryegrass, Italian” value (ryegrass, Italian; 13 to 15 days) was 90 and the “Ryegrass, Italian plant response rating” value (ryegrass, Italian; [8]) was 90. For the same compound, the “Pigweed plant response rating” value (pigweed; [12]) was 100, the “Pigweed plant response rating” value (pigweed; [13]) was 100 and the “Barnyardgrass plant response rating” value (barnyardgrass [4]; [12]) was 100. The “Barnyardgrass plant response rating” value (barnyardgrass [4]; [13]) was 100, the “Johnsongrass plant response rating” value (johnsongrass; [6]) was 5 and the “Johnsongrass plant response rating” value (johnsongrass; [7]) was 35. For the same compound, the “Plant response rating, Johnsongrass” value (johnsongrass; 13 to 15 days) was 75, the “Johnsongrass plant response rating” value (johnsongrass; [8]) was 95 and the “Foxtail, Giant plant response rating” value (foxtail, giant; [6]) was 60. For the same compound, the “Foxtail, Giant plant response rating” value (foxtail, giant; [7]) was 85, the “Plant response rating, Foxtail, Giant” value (foxtail, giant; 13 to 15 days) was 100 and the “Foxtail, Giant plant response rating” value (foxtail, giant; [8]) was 100. The “Plant response rating (scale of 0 to 100 where 0 is no effect and 100 is complete control), Kochia” value (kochia) was 50, the “Kochia plant response rating” value (kochia) was 70 and the “Plant response rating, Kochia” value (kochia; [9]) was 90. The “Plant response rating, Kochia” value (kochia; [10]) was 85, the “Plant response rating (scale of 0 to 100 where 0 is no effect and 100 is complete control), Chickweed” value (chickweed) was 50 and the “Chickweed plant response rating” value (chickweed) was 70. For the same compound, the “Plant response rating, Chickweed” value (chickweed; [9]) was 80, the “Plant response rating, Chickweed” value (chickweed; [10]) was 70 and the “Plant response rating (scale of 0 to 100 where 0 is no effect and 100 is complete control), Barnyardgrass” value (barnyardgrass [5]) was 5. For the same compound, the “Barnyardgrass plant response rating” value (barnyardgrass [5]) was 10, the “Plant response rating, Barnyardgrass” value (barnyardgrass [5]; [9]) was 15 and the “Plant response rating, Barnyardgrass” value (barnyardgrass [5]; [10]) was 10.
